Test results as given in patent US20140135270A1, “MACROCYCLIC COMPOUNDS FOR INHIBITION OF INHIBITORS OF APOPTOSIS” (Ensemble Therapeutics Corp., priority 2012, published 2014).

Assays:
Type in all cases: binding
[1] = biological target: T1, N-His-Tb-BIR3(241-356, XIAP) (Homo sapiens, UniProt P98170); assay: XIAP-BIR3 SMAC Peptide Fluorescence Polarization Assay (FPA)
T1 construct: additions of N-His-Tb-BIR3(241-356, XIAP), fluoresceinated modified SMAC peptide; Tb (meaning not explained; sits between His tag and BIR3) (N)
T1 sequence (P98170 241-356): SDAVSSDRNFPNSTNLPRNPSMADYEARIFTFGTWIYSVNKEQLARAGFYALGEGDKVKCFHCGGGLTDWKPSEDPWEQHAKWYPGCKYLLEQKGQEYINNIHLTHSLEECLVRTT
Protocol: A. XIAP-BIR3 SMAC Peptide Fluorescence Polarization Assay (FPA) Assays were performed in black, flat-bottom, 384-well plates. The final assay volume was 50 μL prepared from additions of N-His-Tb-BIR3(241-356, XIAP), fluoresceinated modified SMAC peptide, and test compounds in assay buffer consisting of 20 mM Sodium Phosphate, 1 mM EDTA, 50 mM NaCl, and 0.05% Pluronic F68. The reaction was incubated at room temperature for 60 minutes and fluorescence polarization of the reaction was detected on the LJL Plate Reader. Inhibition data were calculated from mP values generated by the no protein control reactions for 100% inhibition and vehicle-only reactions for 0% inhibition. The final concentration of reagents in the assay was 130 nM N-His-Tb-BIR3(241-356, XIAP), 1.4 nM fluoresceinated modified SMAC peptide, and 1% DMSO. Dose response curves were generated to determine the concentration required for inhibiting 50% of polarization activity (IC50). Compounds were dissolved at 10 mM in dimethylsulfoxide (DMSO) and evaluated at eleven concentrations. IC50 values were derived by non-linear regression analysis.

[2] = biological target: T2, His-BIR2 (124-240/C202A/C213G) (Homo sapiens, UniProt P98170, C202A/C213G); assay: XIAP-BIR2/SMAC Peptide AlphaScreen Assay; conditions: biotinylated SMAC peptide, read-out: BIR2 ALPHA IC50
T2 construct: additions of His-BIR2 (124-240/C202A/C213G), Biotinylated SMAC peptide
T2 sequence (P98170 124-240 C202A/C213G): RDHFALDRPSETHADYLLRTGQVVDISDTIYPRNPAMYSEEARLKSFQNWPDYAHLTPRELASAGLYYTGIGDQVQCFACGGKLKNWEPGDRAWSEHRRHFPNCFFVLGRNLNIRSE
Protocol: C. XIAP-BIR2/SMAC Peptide AlphaScreen Assay
Assays were performed in white, flat-bottom, 384-well ProxiPlates (Perkin Elmer). […]. The reaction was incubated at room temperature for 60 minutes. After 60 minutes, 2.5 μL of Alphascreen detection reagent (Perkin Elmer) was added to the reaction mixture and incubated at room temperature in the dark for 120 minutes. The Alphascreen signal generated by the reaction was detected on the Envision Plate Reader. Inhibition data were calculated from an Alphascreen signal generated by the no protein control reactions for 100% inhibition and vehicle-only reactions for 0% inhibition. […]
Biotinylated SMAC peptide, 4 μg/mL Alphascreen detection reagents, and 0.5% DMSO. Dose response curves were generated to determine the concentration required for inhibiting 50% of the activity (IC50). Compounds were dissolved at 10 mM in dimethylsulfoxide (DMSO) and evaluated at eleven concentrations. IC50 values were derived by non-linear regression analysis.

[3] = biological target: T3, His-BIR2-3 (125-356, C202A/C213G, XIAP) (Homo sapiens, UniProt P98170, C202A/C213G); assay: XIAP-BIR2-3 Dimeric SMAC Peptide Homogeneous Time Resolved Fluorescence (HTRF) Assay; conditions: fluorescein labeled dimeric SMAC peptide
T3 construct: additions of His-BIR2-3 (125-356, C202A/C213G, XIAP), fluorescein labeled dimeric SMAC peptide
T3 sequence (P98170 125-356 C202A/C213G): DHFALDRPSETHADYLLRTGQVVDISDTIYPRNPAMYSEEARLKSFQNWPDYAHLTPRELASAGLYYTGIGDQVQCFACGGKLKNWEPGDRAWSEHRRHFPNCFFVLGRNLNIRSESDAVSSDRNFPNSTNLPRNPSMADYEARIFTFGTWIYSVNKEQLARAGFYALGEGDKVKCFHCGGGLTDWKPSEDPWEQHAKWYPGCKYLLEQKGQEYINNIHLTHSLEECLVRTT

His-BIR3 (241-356, XIAP) = biological target: T4, His-BIR3 (241-356, XIAP) (Homo sapiens, UniProt P98170); assay: XIAP-BIR3/SMAC Homogeneous Time Resolved Fluorescence (HTRF) Assay; conditions: fluorescein labeled SMAC peptide
T4 construct: additions of His-BIR3 (241-356, XIAP), fluorescein labeled SMAC peptide
T4 sequence (P98170 241-356): as the sequence (P98170 241-356) above

| Structure (SMILES) | IC50 [1] [nM] | IC50 [2] [nM] | IC50 [3] [nM] | IC50 (His-BIR3 (241-356, XIAP)) [nM] |
| --- | --- | --- | --- | --- |
| CN[C@@H](C)C(=O)N[C@H](C(=O)N1C[C@@H]2C[C@H]1C(=O)N[C@@H](Cc1ccc3ccccc3c1)C(=O)N[C@H](C(=O)O)C/C=C/CO[C@H]1C[C@@H](C(=O)N[C@@H](Cc3ccc4ccccc4c3)C(=O)N[C@H](C(=O)O)CCC(=O)N2)N(C(=O)[C@@H](NC(=O)[C@H](C)NC)C(C)(C)C)C1)C(C)(C)C [Example 35] | 47.6 | 49.1 |  |  |
| CN[C@@H](C)C(=O)N[C@H](C(=O)N[C@H]1C/C=C\CC[C@@H](C(=O)O)NC(=O)[C@H](Cc2ccc3ccccc3c2)NC(=O)[C@@H]2CN(CCN2C(=O)[C@@H](NC(=O)[C@H](C)NC)C(C)(C)C)C(=O)CNC(=O)CC[C@@H](C(=O)O)NC(=O)[C@H](Cc2ccc3ccccc3c2)NC1=O)C(C)(C)C [Example 76] |  |  | 14.6 | 293 |
| CN[C@@H](C)C(=O)NC(C(=O)N1C[C@@H]2C[C@H]1C(=O)N[C@@H](Cc1ccc3ccccc3c1)C(=O)N[C@H](C(=O)O)Cc1ccc(cc1)OC/C=C/C(=O)N1CCN(C(=O)[C@@H](NC(=O)[C@H](C)NC)C(C)(C)C)[C@@H](C1)C(=O)N[C@@H](Cc1ccc3ccccc3c1)C(=O)N[C@H](C(=O)O)CCC(=O)N2)C(C)(C)C (stereo partly shown) [Example 79] |  |  | 5.6 | 44.3 |
| CN[C@@H](C)C(=O)N[C@H](C(=O)N1C[C@H]2C/C=C/COc3ccc(cc3)C[C@@H](C(=O)O)NC(=O)[C@H]([C@H](C)c3ccc4ccccc4c3)NC(=O)[C@@H]3C[C@@H](CN3C(=O)[C@@H](NC(=O)[C@H](C)NC)C(C)(C)C)n3cc(nn3)COc3ccc(cc3)C[C@@H](C(=O)NS(=O)(=O)C3CC3)NC(=O)[C@H](Cc3ccc4ccccc4c3)NC(=O)[C@@H]1C2)C(C)(C)C [Example 98] |  |  | 2.2 | 4.4 |
| CN[C@@H](C)C(=O)N[C@H](C(=O)N1C[C@@H]2C[C@H]1C(=O)N[C@@H](Cc1ccc3ccccc3c1)C(=O)N[C@H](C(=O)O)Cc1ccc(cc1)OC/C=C/CO[C@H]1C[C@@H](C(=O)N[C@@H](Cc3ccc(-c4ccc(O)cc4)cc3)C(=O)N[C@H](C(=O)NS(=O)(=O)C3CC3)Cc3ccc(cc3)OCc3cn2nn3)N(C(=O)[C@@H](NC(=O)[C@H](C)NC)C(C)(C)C)C1)C(C)(C)C [Example 113] |  |  | 7.1 | 13.5 |
| CN[C@@H](C)C(=O)N[C@H](C(=O)N1C[C@@H]2C[C@H]1C(=O)N[C@@H](Cc1ccc3ccccc3c1)C(=O)N[C@H](C(=O)O)Cc1ccc(cc1)OC/C=C/CO[C@H]1C[C@@H](C(=O)N[C@@H](C(c3ccccc3)c3ccccc3)C(=O)N[C@H](C(=O)O)Cc3ccc(cc3)C(=O)N2)N(C(=O)[C@@H](NC(=O)[C@H](C)NC)C(C)(C)C)C1)C(C)(C)C [Example 62] |  |  | 8 | 60.2 |
| CN[C@@H](C)C(=O)NC(C(=O)N1C[C@H]2CCCCOc3ccc(cc3)C[C@@H](c3n[nH]c(=O)o3)NC(=O)C(Cc3ccc4ccccc4c3)NC(=O)[C@@H]3C[C@@H](CN3C(=O)[C@@H](NC(=O)[C@H](C)NC)C(C)(C)C)n3cc(nn3)COc3ccc(cc3)C[C@@H](C(=O)O)NC(=O)[C@H](Cc3ccc4ccccc4c3)NC(=O)[C@@H]1C2)C(C)(C)C (stereo partly shown) [Example 92] |  |  | 0.9 | 2.9 |
| CN[C@@H](C)C(=O)N[C@H](C(=O)N1CC[C@@H]2OC/C=C/COc3ccc(cc3)C[C@@H](C(=O)O)NC(=O)[C@H](Cc3ccc4ccccc4c3)NC(=O)[C@@H]3[C@H](CCN3C(=O)[C@@H](NC(=O)[C@H](C)NC)C(C)(C)C)OCc3cn(nn3)[C@H](C(=O)NS(C)(=O)=O)CCCNC(=O)[C@H](Cc3ccc4ccccc4c3)NC(=O)[C@H]21)C(C)(C)C [Example 18] |  |  | 1.8 | 5.8 |
| CN[C@@H](C)C(=O)N[C@H](C(=O)N1C[C@@H]2C[C@H]1C(=O)N[C@@H](Cc1ccc3ccccc3c1)C(=O)N[C@H](C(=O)NS(=O)(=O)C1CC1)Cc1ccc(cc1)OCc1cn(nn1)[C@H]1C[C@@H](C(=O)N[C@@H](Cc3ccc4ccccc4c3)C(=O)N[C@H](C(=O)O)Cc3ccc(cc3)OC/C=C/CO2)N(C(=O)[C@@H](NC(=O)[C@H](C)NC)C(C)(C)C)C1)C1CCNCC1 [Example 110] |  |  | 1.5 | 10 |
| CN[C@@H](C)C(=O)N[C@H](C(=O)N1C[C@@H]2C[C@H]1C(=O)N[C@@H](Cc1ccc3ccccc3c1)C(=O)N[C@H](C(=O)O)Cc1ccc(cc1)C(=O)N[C@H]1C[C@@H](C(=O)N[C@@H](Cc3ccc4ccccc4c3)C(=O)N[C@H](C(=O)O)Cc3ccc(cc3)C(=O)N2)N(C(=O)[C@@H](NC(=O)[C@H](C)NC)C(C)(C)C)C1)C(C)(C)C [Example 85] |  |  | 2.5 | 16.8 |
| CN[C@@H](C)C(=O)N[C@H](C(=O)N1C[C@H]2C/C=C/COc3ccc(cc3)C[C@@H](C(=O)O)NC(=O)[C@H](Cc3ccc4ccccc4c3)NC(=O)[C@@H]3C[C@@H](CN3C(=O)[C@@H](NC(=O)[C@H](C)NC)C(C)(C)C)NC(=O)c3ccc(cc3)C[C@@H](C(=O)O)NC(=O)C(Cc3ccc4ccccc4c3)NC(=O)[C@@H]1C2)C(C)(C)C (stereo partly shown) [Example 28] |  |  | 1.1 | 3.5 |
| CN[C@@H](C)C(=O)N[C@H](C(=O)N1C[C@@H]2C[C@H]1C(=O)N[C@@H](Cc1ccc3ccccc3c1)C(=O)N[C@H](C(=O)O)Cc1ccc(cc1)OCCCC[C@H]1C[C@@H](C(=O)N[C@@H](Cc3ccc4ccccc4c3)C(=O)N[C@H](C(=O)NS(C)(=O)=O)Cc3ccc(cc3)OCc3cn2nn3)N(C(=O)[C@@H](NC(=O)[C@H](C)NC)C(C)(C)C)C1)C(C)(C)C [Example 2] |  |  | 0.8 | 2.3 |
| CN[C@@H](C)C(=O)N[C@H](C(=O)N1CC[C@@H]2OC/C=C/COc3ccc(cc3)C[C@@H](C(=O)O)NC(=O)[C@H](Cc3ccc4ccccc4c3)NC(=O)[C@@H]3[C@@H](CCN3C(=O)[C@@H](NC(=O)[C@H](C)NC)C(C)(C)C)OCc3cn(nn3)CCC[C@@H](C(=O)O)NC(=O)[C@H](Cc3ccc4ccccc4c3)NC(=O)[C@H]21)C(C)(C)C [Example 11] |  |  | 2.3 | 0.8 |
| CCCCCCCCCCCCS(=O)(=O)NC(=O)[C@@H]1Cc2ccc(cc2)OC/C=C/C[C@H]2C[C@@H](C(=O)N[C@@H](Cc3ccc4ccccc4c3)C(=O)N[C@H](C(=O)O)Cc3ccc(cc3)OCc3cn(nn3)[C@H]3C[C@@H](C(=O)N[C@@H](Cc4ccc5ccccc5c4)C(=O)N1)N(C(=O)[C@@H](NC(=O)[C@H](C)NC)C(C)(C)C)C3)N(C(=O)[C@@H](NC(=O)[C@H](C)NC)C(C)(C)C)C2 [Example 23] |  |  | 6.9 | 34.2 |
| CN[C@@H](C)C(=O)N[C@H](C(=O)N1C[C@@H]2C[C@H]1C(=O)NC(Cc1ccc3ccccc3c1)C(=O)N[C@H](c1nnn[nH]1)Cc1ccc(cc1)OC/C=C/C[C@H]1C[C@@H](C(=O)N[C@@H](Cc3ccc4ccccc4c3)C(=O)N[C@H](C(=O)O)Cc3ccc(cc3)OCc3cn2nn3)N(C(=O)[C@@H](NC(=O)[C@H](C)NC)C(C)(C)C)C1)C(C)(C)C (stereo partly shown) [Example 93] |  |  | 0.4 | 0.8 |
| CN[C@@H](C)C(=O)N[C@H](C(=O)N1C[C@H]2C/C=C/COc3ccc(cc3)C[C@@H](C(=O)NS(=O)(=O)C3CC3)NC(=O)[C@H](Cc3ccc4ccccc4c3)NC(=O)[C@@H]3C[C@H](C/C=C/COc4ccc(cc4)C[C@@H](C(=O)O)NC(=O)[C@H](Cc4ccc5ccccc5c4)NC(=O)[C@@H]1C2)CN3C(=O)[C@@H](NC(=O)[C@H](C)NC)C(C)(C)C)C(C)(C)C [Example 88] |  |  | 1.7 | 3.9 |
| CN[C@@H](C)C(=O)N[C@H](C(=O)N1C[C@@H]2C[C@H]1C(=O)N[C@@H](Cc1ccc3ccccc3c1)C(=O)N[C@H](C(=O)O)Cc1ccc(cc1)OCc1cn(nn1)[C@H]1C[C@@H](C(=O)N[C@@H](Cc3ccc4ccccc4c3)C(=O)N[C@H](C(=O)NS(=O)(=O)C3CC3)Cc3ccc(cc3)OCCCCO2)N(C(=O)[C@@H](NC(=O)[C@H](C)NC)C(C)(C)C)C1)C(C)(C)C [Example 122] |  |  | 11.3 | 12.9 |
